Results taken from PMC7730441, “Acetylcholinesterase and butyrylcholinesterase inhibitory activities of khellactone coumarin derivatives isolated from Peucedanum japonicum Thurnberg” (Scientific Reports, 2020).
Values after ≈ are worked out from the molar mass of the structure shown. Read-outs that look alike come from different tables or passages of the source.

What was measured:
[1] = test system: AChE; conditions: cited from earlier work
[2] = target: T1, BChE (from equine serum) (Equus caballus, UniProt P81908); assay: biochemical; conditions: 15 min preincubation
T1 construct: BChE (from equine serum); purchased Sigma-Aldrich; host or cells: equine serum
T1 sequence (P81908 whole entry): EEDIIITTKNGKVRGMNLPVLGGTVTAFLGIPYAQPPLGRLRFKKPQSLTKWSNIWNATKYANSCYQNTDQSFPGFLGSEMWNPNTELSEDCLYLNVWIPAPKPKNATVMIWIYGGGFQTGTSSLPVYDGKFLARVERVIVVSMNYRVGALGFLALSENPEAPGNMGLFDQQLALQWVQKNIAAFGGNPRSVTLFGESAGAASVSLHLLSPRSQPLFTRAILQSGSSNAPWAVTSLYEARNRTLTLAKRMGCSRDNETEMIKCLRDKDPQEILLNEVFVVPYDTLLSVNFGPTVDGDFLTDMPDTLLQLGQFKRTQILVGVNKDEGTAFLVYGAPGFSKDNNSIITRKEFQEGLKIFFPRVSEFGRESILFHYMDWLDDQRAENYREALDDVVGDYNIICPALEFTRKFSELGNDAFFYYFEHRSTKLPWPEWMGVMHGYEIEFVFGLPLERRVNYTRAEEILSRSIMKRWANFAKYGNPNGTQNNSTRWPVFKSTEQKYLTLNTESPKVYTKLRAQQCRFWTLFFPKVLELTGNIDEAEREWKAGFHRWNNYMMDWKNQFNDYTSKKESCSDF
Description: (§1) AChE assays were performed as described by Ellman et al.[41] with slight modifications. […] DTNB was used for color development, caused by reaction between it and thiocholine (a product of AChE). For inhibitory assays, compounds were preincubated with AChE for 15 min prior to ATCI and DTNB addition. BChE activity was assayed using the same method, but BTCI was used instead of ATCI.
(§2) Inhibitions of the activities of AChE, BChE, MAO-A, and MAO-B by the 15 compounds were investigated at an inhibitor concentration of 10 µM. IC50 values were also determined. […] The inhibition types and Ki values were determined using Lineweaver–Burk Plots and secondary plots.

[3] = target: T2, AChE (Type VI-S; from Electrophorus electricus) (Electrophorus electricus, UniProt O42275); assay: biochemical; conditions: for remaining activity at 10 µM: read-out: Residual activity at 10 µM (%) AChE, inhibitor 10 µM; for SI = IC50 of AChE/ IC50 of BChE: selectivity index
T2 construct: AChE (Type VI-S; from Electrophorus electricus); purchased Sigma-Aldrich Type VI-S (catalogue number not given)
T2 sequence (O42275 24-633): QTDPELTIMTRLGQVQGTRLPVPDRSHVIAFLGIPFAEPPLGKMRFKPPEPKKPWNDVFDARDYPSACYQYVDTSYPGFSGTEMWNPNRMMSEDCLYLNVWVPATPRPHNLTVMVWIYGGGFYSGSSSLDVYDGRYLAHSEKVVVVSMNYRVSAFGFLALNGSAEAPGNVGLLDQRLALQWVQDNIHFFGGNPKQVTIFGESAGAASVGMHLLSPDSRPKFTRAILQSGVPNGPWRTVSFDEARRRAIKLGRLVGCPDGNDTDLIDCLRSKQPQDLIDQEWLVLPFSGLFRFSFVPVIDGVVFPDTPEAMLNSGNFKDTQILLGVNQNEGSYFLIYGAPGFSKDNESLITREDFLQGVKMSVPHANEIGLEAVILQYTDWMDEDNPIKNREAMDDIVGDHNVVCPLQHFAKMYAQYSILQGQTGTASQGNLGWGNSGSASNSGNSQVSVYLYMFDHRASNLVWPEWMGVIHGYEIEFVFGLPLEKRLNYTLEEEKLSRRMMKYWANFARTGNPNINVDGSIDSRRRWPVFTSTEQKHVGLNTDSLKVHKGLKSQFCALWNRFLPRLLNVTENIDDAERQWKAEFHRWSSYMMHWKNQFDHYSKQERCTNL
Description: as §1, §2

[4] = target: T3, recombinant human MAO-B (Homo sapiens, UniProt P27338); assay: MAO-B inhibition assay (benzylamine); format: biochemical; conditions: for remaining activity at 10 µM: read-out: Residual activity at 10 µM (%) MAO-B
T3 construct: purchased Sigma-Aldrich
T3 sequence (P27338 1-520): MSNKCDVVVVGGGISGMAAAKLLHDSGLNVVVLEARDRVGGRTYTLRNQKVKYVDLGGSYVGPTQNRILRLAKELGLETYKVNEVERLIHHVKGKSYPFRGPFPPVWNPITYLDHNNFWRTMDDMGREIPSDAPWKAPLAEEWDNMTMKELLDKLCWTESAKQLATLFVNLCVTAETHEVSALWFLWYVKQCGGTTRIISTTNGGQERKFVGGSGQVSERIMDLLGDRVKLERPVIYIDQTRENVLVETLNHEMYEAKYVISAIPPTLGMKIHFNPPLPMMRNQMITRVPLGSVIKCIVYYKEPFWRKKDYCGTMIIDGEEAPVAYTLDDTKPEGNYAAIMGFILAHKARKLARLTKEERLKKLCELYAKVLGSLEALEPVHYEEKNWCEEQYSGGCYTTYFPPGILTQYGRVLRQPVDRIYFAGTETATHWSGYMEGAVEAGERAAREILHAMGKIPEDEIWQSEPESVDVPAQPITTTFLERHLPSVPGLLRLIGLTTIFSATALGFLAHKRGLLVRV
Description: as §1, §2

[5] = target: T4, recombinant human MAO-A (Homo sapiens, UniProt P21397); assay: MAO-A inhibition assay (kynuramine); format: biochemical; conditions: for remaining activity at 10 µM: read-out: Residual activity at 10 µM (%) MAO-A
T4 construct: purchased Sigma-Aldrich
T4 sequence (P21397 1-527): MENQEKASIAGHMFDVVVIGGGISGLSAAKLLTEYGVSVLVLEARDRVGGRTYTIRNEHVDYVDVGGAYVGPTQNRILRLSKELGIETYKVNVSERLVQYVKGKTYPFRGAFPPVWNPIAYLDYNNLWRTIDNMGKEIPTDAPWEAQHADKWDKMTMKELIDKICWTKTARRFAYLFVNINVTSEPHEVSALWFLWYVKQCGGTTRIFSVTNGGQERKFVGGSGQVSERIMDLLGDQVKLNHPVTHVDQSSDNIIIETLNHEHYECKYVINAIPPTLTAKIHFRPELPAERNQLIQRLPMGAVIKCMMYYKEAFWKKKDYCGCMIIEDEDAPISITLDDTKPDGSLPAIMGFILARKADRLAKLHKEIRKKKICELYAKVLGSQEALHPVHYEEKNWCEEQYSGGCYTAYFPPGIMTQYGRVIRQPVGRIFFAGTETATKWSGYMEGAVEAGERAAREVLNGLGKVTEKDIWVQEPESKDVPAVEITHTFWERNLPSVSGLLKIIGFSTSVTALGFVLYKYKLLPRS
Description: as §1, §2

[6] = test system: BChE; conditions: cited from earlier work
[7] = verbascosides from Harpagophytum procumbens
[8] = 15 min preincubation, read-out: IC50 (µM) AChE

Compound | remaining activity at 10 µM ([3]; 15 min preincubation) [%] | SI = IC50 of AChE/ IC50 of BChE [3] | IC50 ([2]; read-out: IC50 (µM) BChE) [µM] | IC50 [3, 8] [µM] | remaining activity at 10 µM ([4]; inhibitor 10 µM) [%] | remaining activity at 10 µM ([5]; inhibitor 10 µM) [%] | also measured
COC(C)(C)[C@H](O)CCC(C)=CCOc1c2ccoc2cc2oc(=O)ccc12 [(R)-( +)-6′-hydroxy-7′-methoxybergamottin] |  |  |  |  |  |  | IC50 ([1]; from Citrus hystrix): 11.2 µM
C[C@@H]1O[C@@H](O[C@@H]2[C@@H](O)[C@H](OCCc3ccc(O)c(O)c3)O[C@H](CO)[C@H]2O)[C@H](O)[C@H](O)[C@H]1O [decaffeoylverbascoside] |  |  |  |  |  |  | IC50 [1, 7]: 16.1 µM
C/C=C(/C)C(=O)O[C@@H]1c2c(ccc3ccc(=O)oc23)OC(C)(C)[C@@H]1OC(=O)/C(C)=C\C [PJ7, anomalin] | 75.4 ± 5.72 | < 0.45 |  |  |  |  | IC50 ([2]; IC50 (µM) BChE): > 40 µM; IC50 [3]: 17.9 ± 5.59 µM; remaining activity at 10 µM [4]: 73.8 ± 8.23%; remaining activity at 10 µM [5]: 74 ± 1.16%
C[C@@H]1O[C@@H](O[C@@H]2[C@@H](O)[C@H](OCCc3ccc(O)c(O)c3)O[C@H](CO)[C@H]2OC(=O)/C=C/c2ccc(O)c(O)c2)[C@H](O)[C@H](O)[C@H]1O [acteoside] |  |  |  |  |  |  | IC50 [1, 7]: 19.9 µM
CC1=C2OCC(C)c3ccc(C)c(c32)C(=O)C1=O (stereo not drawn) [mansonone E] |  |  |  |  |  |  | IC50 ([1]; from Mansonia gagei): 23.5 µM
O=c1c(O)c(-c2ccc(O)cc2)oc2cc(O)cc(O)c12 [kaempferol] |  |  |  |  |  |  | IC50 ([6]; from Cleistocalyx operculatus): 62.5 µM
Pteryxin [PJ2] |  |  |  |  |  |  | Residual activity at 10 µM (%) BChE ([2]; inhibitor 10 µM): 87.6 ± 7.14%; Residual activity at 10 µM (%) AChE ([3]; inhibitor 10 µM, 15 min preincubation): 73.4 ± 11.3%; IC50 ([6]; converted from μg/mL, from M. purpurea): 33.5 µM; IC50 BChE ([6]; from M. purpurea): 12.96 µg/mL; Residual activity at 10 µM (%) MAO-B ([4]; inhibitor 10 µM): 79.7 ± 3.47%; Residual activity at 10 µM (%) MAO-A ([5]; inhibitor 10 µM): 85.4 ± 3.80%
COc1cc2oc(-c3ccc(O)cc3)cc(=O)c2c(O)c1[C@@H]1O[C@H](CO)[C@@H](O)[C@H](O)[C@H]1O [swertisin, isovitexin-7-O-methyl ether] |  |  |  |  |  |  | IC50 ([1]; converted from µg/mL, from Anthocleista vogelii): 71.9 µM; IC50 AChE ([1]; from Anthocleista vogelii): 32.09 µg/mL (≈ 71.9 µM)
C/C=C(/C)C(=O)O[C@@H]1[C@H](OC(=O)C=C(C)C)c2c(ccc3ccc(=O)oc23)OC1(C)C [PJ6, calipteryxin] | 76.3 ± 6.46 | < 0.64 | > 40 | 25.6 ± 4.5 | 63.1 ± 2.75 | 86.1 ± 1.93 | 
C/C=C(/C)C(=O)O[C@@H]1c2c(ccc3ccc(=O)oc23)OC(C)(C)[C@@H]1OC(=O)C(C)CC (stereo partly drawn) [PJ12] | 58.3 ± 5.37 | < 0.73 | > 40 | 29 ± 1.15 | 72.4 ± 3.7 | 78.9 ± 3.98 | 
O=c1ccc2ccc(O)c(O)c2o1 [daphnetin] |  |  |  |  |  |  | IC50 [6]: 8.66 µM; IC50 ([1]; from Artemisia capillaris): 11.6 µM
CCC(C)C(=O)c1c(O)c2c(c3c(-c4ccccc4)cc(=O)oc13)OC(C)(CCC=C(C)C)C=C2 (stereo not drawn) [mesuagenin B] |  |  |  |  |  |  | IC50 ([1]; from Mesua elegans): 0.7 µM
CCC(C)C(=O)O[C@@H]1c2c(ccc3ccc(=O)oc23)OC(C)(C)[C@@H]1OC(C)=O (stereo partly drawn) [PJ3, hyuganin] | 97.2 ± 8.3 |  | > 40 | > 40 | 83.7 ± 2.33 | 81.2 ± 3.68 | 
CC(C)=CC(=O)O[C@@H]1[C@H](OC(=O)CC(C)C)c2c(ccc3ccc(=O)oc23)OC1(C)C [PJ8, 3′-senecioyl-4′-isovalerylkhellactone] | 97 ± 1.4 | < 0.79 | > 40 | 31.6 ± 4.4 | 68.5 ± 2.1 | 79.5 ± 2.05 | 
CCC(C)C(=O)O[C@@H]1c2c(ccc3ccc(=O)oc23)OC(C)(C)[C@@H]1OC(=O)C=C(C)C (stereo partly drawn) [PJ10, 3′-senecioyl-4′-(2-methylbutyryl)khellactone] | 86.4 ± 5.23 | > 3.92 | 10.2 | > 40 | 70.9 ± 2.61 | 92.1 ± 5.58 | 
